Assay results: patent US11000033B2, “Ketone or oxime compound, and herbicide” (NISSAN CHEMICAL CORPORATION, priority 2014, dated 2021)

How the values were obtained:
Assay type in all cases: in vivo
[1] = test system: Echinochloa oryzacola Vasing.; assay: Test Example 1: herbicidal activity, application before weed generation in submerged conditions (symbol A); details: application herbicide amount 320 g/ha
How it was run: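 Steps: alluvial soil flooded to 4 cm; weed seeds sown together; rice seedlings (2.5 leaf) transplanted; diluted emulsion applied to water surface the same day as sowing; plants grown at 25–30 °C in greenhouse; herbicidal effect rated on a 0–5 scale at 3 weeks.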

Amaranthus retroflexus = assay: Test Example 4: herbicidal effect by soil treatment (symbol N); details: for N (Amaranthus retroflexus) herbicidal effect grade: application herbicide amount 320 g/ha; for N: Amaranthus retroflexus, herbicidal effect grade: 320 g/ha
How it was run: (§1)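 Seeds were sown in sterilized diluvial soil, covered with about 1.5 cm of soil, and the soil surface was sprayed with a water-diluted emulsion of the compound at a predetermined rate. Plants grew in a greenhouse at 25° C. to 30° C.; effects were scored visually 3 weeks after application.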

[2] = test system: Echinochloa crus-galli var. crus-galli; assay: Test Example 3: herbicidal effect by foliage application, Wagner pot (symbol H); details: application herbicide amount 320 g/ha
How it was run: (§2)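 In a shallow-flooded alluvial soil system held at 25–30 °C, plants including rice grew for 14 days and were then sprayed over the foliage with emulsion diluted to a fixed herbicide amount. Visual rating followed at 3 weeks.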

[3] = test system: Echinochloa crus-galli var. crus-galli; assay: Test Example 4: herbicidal effect by soil treatment (symbol H); details: for H (Echinochloa crus-galli var. crus-galli) herbicidal effect grade: application herbicide amount 320 g/ha; for H: Echinochloa crus-galli var. crus-galli, herbicidal effect grade: 320 g/ha
How it was run: as §1

rice plant = assay: Test Example 5: effect on crop by foliage application, plastic box (symbol b); details: 320 g/ha, 3 weeks after application
How it was run: (§3)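 Foliage-application test plants come from spot sowing in sterilized diluvial soil under a soil layer of about 1.5 cm, grown at 25° C. to 30° C. in a greenhouse.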

Apera spica-venti [4] = assay: Test Example 5: herbicidal effect by foliage application, plastic box (symbol L); details: 320 g/ha, 3 weeks after application
How it was run: (§4)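 Herbicide, formulated as an emulsion and diluted in water, is sprayed onto the aerial parts of 14-day seedlings. These were grown at 25° C. to 30° C. in sterilized diluvial soil; effects are graded after 3 weeks.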

Cyperus difformis = assay: Test Example 3: herbicidal effect by foliage application, Wagner pot (symbol E); details: application herbicide amount 320 g/ha
How it was run: as §2

[5] = test system: Echinochloa oryzacola Vasing.; assay: Test Example 2: herbicidal activity, application during weed generation in submerged conditions (symbol A); details: Table 23; application herbicide amount 320 g/ha; grade 0-5 by criteria of Test Example 1
How it was run: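 Compound was applied as a water-diluted emulsion into the standing water of flooded pots (4 cm) once co-sown weeds reached one to two leaves. Greenhouse temperature was 25° C. to 30° C., soil was alluvial, and each species was rated visually after 3 weeks.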

soybean = assay: Test Example 5: effect on crop by foliage application, plastic box (symbol d); details: 320 g/ha, 3 weeks after application
How it was run: as §3

Apera spica-venti [6] = assay: Test Example 4: herbicidal effect by soil treatment (symbol L); details: for L (Apera spica-venti) herbicidal effect grade: application herbicide amount 320 g/ha; for L: Apera spica-venti, herbicidal effect grade: 320 g/ha
How it was run: as §1

beet = assay: Test Example 5: effect on crop by foliage application, plastic box (symbol f); details: 320 g/ha, 3 weeks after application
How it was run: as §3

Setaria viridis = assay: Test Example 5: herbicidal effect by foliage application, plastic box (symbol G); details: 320 g/ha, 3 weeks after application
How it was run: as §4

Stellaria media = assay: Test Example 5: herbicidal effect by foliage application, plastic box (symbol P); details: 320 g/ha, 3 weeks after application
How it was run: as §4

SMILES: CON=C(CC1CC(O)=C(c2c(C)cc(C)cc2C)C1=O)C1CC1 (stereo not drawn) [1-046]
- Herbicidal effect grade, A: Echinochloa oryzacola Vasing. [1]: 5 (Herbicidal ratio of 90% or more (almost completely withered))
- N (Amaranthus retroflexus) herbicidal effect grade (Amaranthus retroflexus): 2 (Herbicidal ratio of 20% or higher and lower than 40%)
- herbicidal effect on H (Echinochloa crus-galli var. crus-galli), grade 0-5 [2]: 5 (Herbicidal ratio of 90% or more (almost completely withered))
- H (Echinochloa crus-galli var. crus-galli) herbicidal effect grade [3]: 5 (Herbicidal ratio of 90% or more (almost completely withered))
- b: directly sowed rice plant, effect on crop grade (rice plant): 5 (Herbicidal ratio of 90% or more (almost completely withered))
- L: Apera spica-venti, herbicidal effect grade (Apera spica-venti [4]): 5 (Herbicidal ratio of 90% or more (almost completely withered))
- herbicidal effect on E, grade 0-5 (Cyperus difformis): 5 (Herbicidal ratio of 90% or more (almost completely withered))
- Herbicidal effect grade, A: Echinochloa oryzacola Vasing. [5]: 5 (Herbicidal ratio of 90% or more (almost completely withered))
- d: soybean, effect on crop grade (soybean): 3 (Herbicidal ratio of 40% or higher and lower than 70%)
- L (Apera spica-venti) herbicidal effect grade (Apera spica-venti [6]): 5 (Herbicidal ratio of 90% or more (almost completely withered))
- f: beet, effect on crop grade (beet): 0 (Herbicidal ratio of 5% or lower (almost no effect))
- G: Setaria viridis, herbicidal effect grade (Setaria viridis): 5 (Herbicidal ratio of 90% or more (almost completely withered))
- P: Stellaria media, herbicidal effect grade (Stellaria media): 2 (Herbicidal ratio of 20% or higher and lower than 40%)

SMILES: CON=C(C)C(C)C1CC(O)=C(c2c(C)cc(C)cc2C)C1=O (stereo not drawn) [1-032]
- Herbicidal effect grade, A: Echinochloa oryzacola Vasing. [1]: 5 (Herbicidal ratio of 90% or more (almost completely withered))
- N (Amaranthus retroflexus) herbicidal effect grade (Amaranthus retroflexus): 4 (Herbicidal ratio of 70% or higher and lower than 90%)
- herbicidal effect on H (Echinochloa crus-galli var. crus-galli), grade 0-5 [2]: 5 (Herbicidal ratio of 90% or more (almost completely withered))
- H (Echinochloa crus-galli var. crus-galli) herbicidal effect grade [3]: 5 (Herbicidal ratio of 90% or more (almost completely withered))
- b: directly sowed rice plant, effect on crop grade (rice plant): 5 (Herbicidal ratio of 90% or more (almost completely withered))
- L: Apera spica-venti, herbicidal effect grade (Apera spica-venti [4]): 5 (Herbicidal ratio of 90% or more (almost completely withered))
- herbicidal effect on E, grade 0-5 (Cyperus difformis): 5 (Herbicidal ratio of 90% or more (almost completely withered))
- Herbicidal effect grade, A: Echinochloa oryzacola Vasing. [5]: 5 (Herbicidal ratio of 90% or more (almost completely withered))
- d: soybean, effect on crop grade (soybean): 4 (Herbicidal ratio of 70% or higher and lower than 90%)
- L (Apera spica-venti) herbicidal effect grade (Apera spica-venti [6]): 5 (Herbicidal ratio of 90% or more (almost completely withered))
- f: beet, effect on crop grade (beet): 3 (Herbicidal ratio of 40% or higher and lower than 70%)
- G: Setaria viridis, herbicidal effect grade (Setaria viridis): 5 (Herbicidal ratio of 90% or more (almost completely withered))
- P: Stellaria media, herbicidal effect grade (Stellaria media): 4 (Herbicidal ratio of 70% or higher and lower than 90%)

SMILES: CON=C(CC1CC(O)=C(c2c(C)cc(C)cc2C)C1=O)c1ccccn1 (stereo not drawn) [1-045]
- Herbicidal effect grade, A: Echinochloa oryzacola Vasing. [1]: 5 (Herbicidal ratio of 90% or more (almost completely withered))
- N (Amaranthus retroflexus) herbicidal effect grade (Amaranthus retroflexus): 0 (Herbicidal ratio of 5% or lower (almost no effect))
- herbicidal effect on H (Echinochloa crus-galli var. crus-galli), grade 0-5 [2]: 5 (Herbicidal ratio of 90% or more (almost completely withered))
- H (Echinochloa crus-galli var. crus-galli) herbicidal effect grade [3]: 0 (Herbicidal ratio of 5% or lower (almost no effect))
- b: directly sowed rice plant, effect on crop grade (rice plant): 5 (Herbicidal ratio of 90% or more (almost completely withered))
- L: Apera spica-venti, herbicidal effect grade (Apera spica-venti [4]): 5 (Herbicidal ratio of 90% or more (almost completely withered))
- herbicidal effect on E, grade 0-5 (Cyperus difformis): 0 (Herbicidal ratio of 5% or lower (almost no effect))
- Herbicidal effect grade, A: Echinochloa oryzacola Vasing. [5]: 3 (Herbicidal ratio of 40% or higher and lower than 70%)
- d: soybean, effect on crop grade (soybean): 1 (Herbicidal ratio of 5% or higher and lower than 20%)
- L (Apera spica-venti) herbicidal effect grade (Apera spica-venti [6]): 0 (Herbicidal ratio of 5% or lower (almost no effect))
- f: beet, effect on crop grade (beet): 0 (Herbicidal ratio of 5% or lower (almost no effect))
- G: Setaria viridis, herbicidal effect grade (Setaria viridis): 5 (Herbicidal ratio of 90% or more (almost completely withered))
- P: Stellaria media, herbicidal effect grade (Stellaria media): 0 (Herbicidal ratio of 5% or lower (almost no effect))

SMILES: COCC(CC1CC(O)=C(c2c(C)cc(C)cc2C)C1=O)=NOC (stereo not drawn) [1-040]
- Herbicidal effect grade, A: Echinochloa oryzacola Vasing. [1]: 3 (Herbicidal ratio of 40% or higher and lower than 70%)
- N (Amaranthus retroflexus) herbicidal effect grade (Amaranthus retroflexus): 0 (Herbicidal ratio of 5% or lower (almost no effect))
- herbicidal effect on H (Echinochloa crus-galli var. crus-galli), grade 0-5 [2]: 5 (Herbicidal ratio of 90% or more (almost completely withered))
- H (Echinochloa crus-galli var. crus-galli) herbicidal effect grade [3]: 5 (Herbicidal ratio of 90% or more (almost completely withered))
- b: directly sowed rice plant, effect on crop grade (rice plant): 5 (Herbicidal ratio of 90% or more (almost completely withered))
- L: Apera spica-venti, herbicidal effect grade (Apera spica-venti [4]): 5 (Herbicidal ratio of 90% or more (almost completely withered))
- herbicidal effect on E, grade 0-5 (Cyperus difformis): 4 (Herbicidal ratio of 70% or higher and lower than 90%)
- Herbicidal effect grade, A: Echinochloa oryzacola Vasing. [5]: 4 (Herbicidal ratio of 70% or higher and lower than 90%)
- d: soybean, effect on crop grade (soybean): 0 (Herbicidal ratio of 5% or lower (almost no effect))
- L (Apera spica-venti) herbicidal effect grade (Apera spica-venti [6]): 5 (Herbicidal ratio of 90% or more (almost completely withered))
- f: beet, effect on crop grade (beet): 0 (Herbicidal ratio of 5% or lower (almost no effect))
- G: Setaria viridis, herbicidal effect grade (Setaria viridis): 4 (Herbicidal ratio of 70% or higher and lower than 90%)
- P: Stellaria media, herbicidal effect grade (Stellaria media): 0 (Herbicidal ratio of 5% or lower (almost no effect))

SMILES: CON=C(C)CC1CC(OC(=O)COc2ccc(C=O)cc2)=C(c2c(C)cc(C)cc2C)C1=O (stereo not drawn) [1-079]
- Herbicidal effect grade, A: Echinochloa oryzacola Vasing. [1]: 5 (Herbicidal ratio of 90% or more (almost completely withered))
- N: Amaranthus retroflexus, herbicidal effect grade (Amaranthus retroflexus): 4 (Herbicidal ratio of 70% or higher and lower than 90%)
- herbicidal effect on H (Echinochloa crus-galli var. crus-galli), grade 0-5 [2]: 5 (Herbicidal ratio of 90% or more (almost completely withered))
- H: Echinochloa crus-galli var. crus-galli, herbicidal effect grade [3]: 5 (Herbicidal ratio of 90% or more (almost completely withered))
- b: directly sowed rice plant, effect on crop (criteria 0-5) (rice plant): 5 (Herbicidal ratio of 90% or more (almost completely withered))
- L: Apera spica-venti, herbicidal effect (criteria 0-5) (Apera spica-venti [4]): 5 (Herbicidal ratio of 90% or more (almost completely withered))
- herbicidal effect on E, grade 0-5 (Cyperus difformis): 5 (Herbicidal ratio of 90% or more (almost completely withered))
- Herbicidal effect grade, A: Echinochloa oryzacola Vasing. [5]: 5 (Herbicidal ratio of 90% or more (almost completely withered))
- d: soybean, effect on crop (criteria 0-5) (soybean): 4 (Herbicidal ratio of 70% or higher and lower than 90%)
- L: Apera spica-venti, herbicidal effect grade (Apera spica-venti [6]): 5 (Herbicidal ratio of 90% or more (almost completely withered))
- f: beet, effect on crop (criteria 0-5) (beet): 0 (Herbicidal ratio of 5% or lower (almost no effect))
- G: Setaria viridis, herbicidal effect (criteria 0-5) (Setaria viridis): 5 (Herbicidal ratio of 90% or more (almost completely withered))
- P: Stellaria media, herbicidal effect (criteria 0-5) (Stellaria media): 1 (Herbicidal ratio of 5% or higher and lower than 20%)

SMILES: CON=C(C)CC1CC(OC(=O)COCc2ccccc2)=C(c2c(C)cc(C)cc2C)C1=O (stereo not drawn) [1-094]
- Herbicidal effect grade, A: Echinochloa oryzacola Vasing. [1]: 5 (Herbicidal ratio of 90% or more (almost completely withered))
- N: Amaranthus retroflexus, herbicidal effect grade (Amaranthus retroflexus): 4 (Herbicidal ratio of 70% or higher and lower than 90%)
- herbicidal effect on H (Echinochloa crus-galli var. crus-galli), grade 0-5 [2]: 5 (Herbicidal ratio of 90% or more (almost completely withered))
- H: Echinochloa crus-galli var. crus-galli, herbicidal effect grade [3]: 5 (Herbicidal ratio of 90% or more (almost completely withered))
- b: directly sowed rice plant, effect on crop (criteria 0-5) (rice plant): 5 (Herbicidal ratio of 90% or more (almost completely withered))
- L: Apera spica-venti, herbicidal effect (criteria 0-5) (Apera spica-venti [4]): 5 (Herbicidal ratio of 90% or more (almost completely withered))
- herbicidal effect on E, grade 0-5 (Cyperus difformis): 4 (Herbicidal ratio of 70% or higher and lower than 90%)
- Herbicidal effect grade, A: Echinochloa oryzacola Vasing. [5]: 5 (Herbicidal ratio of 90% or more (almost completely withered))
- d: soybean, effect on crop (criteria 0-5) (soybean): 2 (Herbicidal ratio of 20% or higher and lower than 40%)
- L: Apera spica-venti, herbicidal effect grade (Apera spica-venti [6]): 5 (Herbicidal ratio of 90% or more (almost completely withered))
- f: beet, effect on crop (criteria 0-5) (beet): 0 (Herbicidal ratio of 5% or lower (almost no effect))
- G: Setaria viridis, herbicidal effect (criteria 0-5) (Setaria viridis): 5 (Herbicidal ratio of 90% or more (almost completely withered))
- P: Stellaria media, herbicidal effect (criteria 0-5) (Stellaria media): 3 (Herbicidal ratio of 40% or higher and lower than 70%)
